Assay results: US20260262643A1, “HERBICIDAL BENZOXAZINES” (FMC CORPORATION, priority 2022, published 2026)

Key:
blackgrass [1] = test: Test A postemergence; type: in vivo, Alopecurus myosuroides
Method in brief: (§1)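 Weeds and crops in loam–sand blend were sprayed preemergence onto soil or postemergence at 2–10 cm (one- to two-leaf stage). Test chemicals were in a non-phytotoxic solvent with surfactant. After 10 days in the greenhouse, injury was rated visually against untreated controls on a 0 (no effect) to 100 (complete control) scale.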

pigweed, palmer [2] = test: Test A postemergence; type: in vivo, Amaranthus palmeri
Method in brief: as §1

galium = test: Test A postemergence; type: in vivo, Galium aparine
Method in brief: as §1

pigweed, palmer [3] = test: Test A preemergence; type: in vivo, Amaranthus palmeri
Method in brief: as §1

goosegrass [4] = test: Test A preemergence; type: in vivo, Eleusine indica
Method in brief: as §1

kochia [5] = test: Test A preemergence; type: in vivo, Bassia scoparia
Method in brief: as §1

ragweed [6] = test: Test A preemergence; type: in vivo, Ambrosia artemisiifolia
Method in brief: as §1

corn [7] = test: Test A preemergence; type: in vivo, Zea mays
Method in brief: as §1

oat, wild [8] = test: Test A postemergence; type: in vivo, Avena fatua
Method in brief: as §1

blackgrass [9] = test: Test A preemergence; type: in vivo, Alopecurus myosuroides
Method in brief: as §1

oat, wild [10] = test: Test A preemergence; type: in vivo, Avena fatua
Method in brief: as §1

wheat [11] = test: Test A postemergence; type: in vivo, Triticum aestivum
Method in brief: as §1

barnyardgrass = test: Test B flooded paddy test; type: in vivo, Echinochloa crus-galli; conditions: 250 g ai/ha, Flood, 13 days, 0 to 100 scale (0 no effect, 100 complete control)
Method in brief: (§2)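 Species grown to 2-leaf stage; pots flooded 3 cm above soil and compound applied directly to paddy water, depth maintained throughout. After 13 days in greenhouse, plants visually rated against controls on 0–100 scale (0 no effect, 100 complete control); dash means no result.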

foxtail, giant [12] = test: Test A preemergence; type: in vivo, Setaria faberi
Method in brief: as §1

sedge, umbrella = test: Test B flooded paddy test; type: in vivo, Cyperus difformis; conditions: 250 g ai/ha, Flood, 13 days, 0 to 100 scale (0 no effect, 100 complete control)
Method in brief: as §2

ragweed [13] = test: Test A postemergence; type: in vivo, Ambrosia artemisiifolia
Method in brief: as §1

horseweed = test: Test A postemergence; type: in vivo, Erigeron canadensis
Method in brief: as §1

foxtail, giant [14] = test: Test A postemergence; type: in vivo, Setaria faberi
Method in brief: as §1

wheat [15] = test: Test A preemergence; type: in vivo, Triticum aestivum
Method in brief: as §1

ducksalad = test: Test B flooded paddy test; type: in vivo, Heteranthera limosa; conditions: 250 g ai/ha, Flood, 13 days, 0 to 100 scale (0 no effect, 100 complete control)
Method in brief: as §2

ryegrass, Italian [16] = test: Test A preemergence; type: in vivo, Lolium multiflorum
Method in brief: as §1

soybean [17] = test: Test A postemergence; type: in vivo, Glycine max
Method in brief: as §1

corn [18] = test: Test A postemergence; type: in vivo, Zea mays
Method in brief: as §1

kochia [19] = test: Test A postemergence; type: in vivo, Bassia scoparia
Method in brief: as §1

ryegrass, Italian [20] = test: Test A postemergence; type: in vivo, Lolium multiflorum
Method in brief: as §1

goosegrass [21] = test: Test A postemergence; type: in vivo, Eleusine indica
Method in brief: as §1

rice = test: Test B flooded paddy test; type: in vivo, Oryza sativa; conditions: 250 g ai/ha, Flood, 13 days, 0 to 100 scale (0 no effect, 100 complete control)
Method in brief: as §2

soybean [22] = test: Test A preemergence; type: in vivo, Glycine max
Method in brief: as §1

[23] = 125 g ai/ha, postemergence, 10 days, visual injury, 0 to 100 scale (0 no effect, 100 complete control)
[24] = 500 g ai/ha, Postemergence, 0 to 100 scale
[25] = 125 g ai/ha, visual injury after 10 days, 0 to 100 scale, 0 is no effect, 100 is complete control
[26] = 500 g ai/ha, 0 to 100 scale (0 no effect, 100 complete control), 10 days

Cc1cccc2c1O[C@@H](C)CN2C(=O)c1cccc(-n2cnc(C(C)C)n2)c1 [Compound 55]
80: Plant response rating, Blackgrass (blackgrass [1]; [24]) | Plant response rating, Pigweed, Palmer (pigweed, palmer [3]; [25]) | Plant response rating, Oat, Wild (oat, wild [8]; [24]) | Plant response rating, Blackgrass (blackgrass [9]; [25]) | Plant response rating, Ryegrass, Italian (ryegrass, Italian [16]; [25]) | Plant response rating, Corn (corn [18]; [24]) | Plant response rating, Kochia (kochia [19]; [23])
75: Plant response rating, Ducksalad (ducksalad)
70: Plant response rating, Oat, Wild (oat, wild [10]; [25]) | Plant response rating, Ragweed (ragweed [13]; [24])
95: Plant response rating, Sedge, Umbrella (sedge, umbrella)
60: Plant response rating, Blackgrass (blackgrass [1]; [23]) | Plant response rating, Pigweed, Palmer (pigweed, palmer [2]; [24]) | Plant response rating, Wheat (wheat [11]; [24]) | Plant response rating, Wheat (wheat [15]; [26])
100: Plant response rating, Galium (galium; [23]) | Plant response rating, Galium (galium; [24]) | Plant response rating, Goosegrass (goosegrass [4]; [25]) | Plant response rating, Goosegrass (goosegrass [4]; [26]) | Plant response rating, Kochia (kochia [5]; [26]) | Plant response rating, Foxtail, Giant (foxtail, giant [12]; [25]) | Plant response rating, Foxtail, Giant (foxtail, giant [12]; [26]) | Plant response rating, Foxtail, Giant (foxtail, giant [14]; [23]) | Plant response rating, Foxtail, Giant (foxtail, giant [14]; [24]) | Plant response rating, Ryegrass, Italian (ryegrass, Italian [16]; [26]) | Plant response rating, Soybean (soybean [17]; [23]) | Plant response rating, Soybean (soybean [17]; [24]) | Plant response rating, Ryegrass, Italian (ryegrass, Italian [20]; [24]) | Plant response rating, Soybean (soybean [22]; [26])
30: Plant response rating, Corn (corn [7]; [26]) | Plant response rating, Barnyardgrass (barnyardgrass) | Plant response rating, Horseweed (horseweed; [24]) | Plant response rating, Soybean (soybean [22]; [25])
40: Plant response rating, Pigweed, Palmer (pigweed, palmer [2]; [23]) | Plant response rating, Ragweed (ragweed [6]; [26]) | Plant response rating, Oat, Wild (oat, wild [8]; [23]) | Plant response rating, Wheat (wheat [11]; [23]) | Plant response rating, Wheat (wheat [15]; [25]) | Plant response rating, Corn (corn [18]; [23])
50: Plant response rating, Ragweed (ragweed [13]; [23]) | Plant response rating, Ryegrass, Italian (ryegrass, Italian [20]; [23]) | Plant response rating, Goosegrass (goosegrass [21]; [23])
0: Plant response rating, Corn (corn [7]; [25]) | Plant response rating, Horseweed (horseweed; [23]) | Plant response rating, Rice (rice)
20: Plant response rating, Ragweed (ragweed [6]; [25])
90: Plant response rating, Pigweed, Palmer (pigweed, palmer [3]; [26]) | Plant response rating, Kochia (kochia [5]; [25]) | Plant response rating, Blackgrass (blackgrass [9]; [26]) | Plant response rating, Oat, Wild (oat, wild [10]; [26]) | Plant response rating, Kochia (kochia [19]; [24]) | Plant response rating, Goosegrass (goosegrass [21]; [24])

CC1CN(C(=O)c2cccc(-n3cncn3)c2)c2c(F)cccc2O1 (centres unmarked) [Compound 28]
40: Plant response rating, Ryegrass, Italian (ryegrass, Italian [16]; [25])
80: Plant response rating, Blackgrass (blackgrass [1]; [24]) | Plant response rating, Goosegrass (goosegrass [4]; [26]) | Plant response rating, Ducksalad (ducksalad)
20: Plant response rating, Pigweed, Palmer (pigweed, palmer [2]; [24]) | Plant response rating, Goosegrass (goosegrass [4]; [25]) | Plant response rating, Kochia (kochia [5]; [26]) | Plant response rating, Ragweed (ragweed [6]; [26]) | Plant response rating, Oat, Wild (oat, wild [8]; [23]) | Plant response rating, Corn (corn [18]; [24]) | Plant response rating, Kochia (kochia [19]; [24])
50: Plant response rating, Galium (galium; [23]) | Plant response rating, Galium (galium; [24]) | Plant response rating, Pigweed, Palmer (pigweed, palmer [3]; [26]) | Plant response rating, Goosegrass (goosegrass [21]; [24])
60: Plant response rating, Blackgrass (blackgrass [9]; [26])
70: Plant response rating, Foxtail, Giant (foxtail, giant [14]; [24]) | Plant response rating, Ryegrass, Italian (ryegrass, Italian [20]; [24])
30: Plant response rating, Blackgrass (blackgrass [1]; [23]) | Plant response rating, Corn (corn [7]; [26]) | Plant response rating, Oat, Wild (oat, wild [8]; [24]) | Plant response rating, Wheat (wheat [11]; [24]) | Plant response rating, Foxtail, Giant (foxtail, giant [12]; [25])
10: Plant response rating, Wheat (wheat [11]; [23]) | Plant response rating, Barnyardgrass (barnyardgrass) | Plant response rating, Wheat (wheat [15]; [26])
90: Plant response rating, Foxtail, Giant (foxtail, giant [12]; [26]) | Plant response rating, Ryegrass, Italian (ryegrass, Italian [16]; [26]) | Plant response rating, Soybean (soybean [17]; [23]) | Plant response rating, Soybean (soybean [17]; [24])
0: Plant response rating, Pigweed, Palmer (pigweed, palmer [2]; [23]) | Plant response rating, Pigweed, Palmer (pigweed, palmer [3]; [25]) | Plant response rating, Kochia (kochia [5]; [25]) | Plant response rating, Ragweed (ragweed [6]; [25]) | Plant response rating, Corn (corn [7]; [25]) | Plant response rating, Blackgrass (blackgrass [9]; [25]) | Plant response rating, Oat, Wild (oat, wild [10]; [25]) | Plant response rating, Oat, Wild (oat, wild [10]; [26]) | Plant response rating, Sedge, Umbrella (sedge, umbrella) | Plant response rating, Ragweed (ragweed [13]; [23]) | Plant response rating, Ragweed (ragweed [13]; [24]) | Plant response rating, Horseweed (horseweed; [23]) | Plant response rating, Horseweed (horseweed; [24]) | Plant response rating, Foxtail, Giant (foxtail, giant [14]; [23]) | Plant response rating, Wheat (wheat [15]; [25]) | Plant response rating, Corn (corn [18]; [23]) | Plant response rating, Kochia (kochia [19]; [23]) | Plant response rating, Ryegrass, Italian (ryegrass, Italian [20]; [23]) | Plant response rating, Goosegrass (goosegrass [21]; [23]) | Plant response rating, Rice (rice) | Plant response rating, Soybean (soybean [22]; [25]) | Plant response rating, Soybean (soybean [22]; [26])

O=C(c1cccc(-n2cncn2)c1)N1CC(C(F)(F)F)Oc2c(Cl)cccc21 (centres unmarked) [Compound 59]
60: Plant response rating, Blackgrass (blackgrass [9]; [26]) | Plant response rating, Ryegrass, Italian (ryegrass, Italian [20]; [24])
100: Plant response rating, Galium (galium; [24]) | Plant response rating, Pigweed, Palmer (pigweed, palmer [3]; [26]) | Plant response rating, Goosegrass (goosegrass [4]; [26]) | Plant response rating, Foxtail, Giant (foxtail, giant [12]; [26]) | Plant response rating, Ryegrass, Italian (ryegrass, Italian [16]; [26]) | Plant response rating, Soybean (soybean [17]; [24])
10: Plant response rating, Pigweed, Palmer (pigweed, palmer [3]; [25]) | Plant response rating, Oat, Wild (oat, wild [8]; [23]) | Plant response rating, Wheat (wheat [11]; [23]) | Plant response rating, Kochia (kochia [19]; [23])
80: Plant response rating, Blackgrass (blackgrass [1]; [24])
40: Plant response rating, Wheat (wheat [11]; [24]) | Plant response rating, Ragweed (ragweed [13]; [23]) | Plant response rating, Ragweed (ragweed [13]; [24]) | Plant response rating, Foxtail, Giant (foxtail, giant [14]; [23])
50: Plant response rating, Pigweed, Palmer (pigweed, palmer [2]; [24]) | Plant response rating, Oat, Wild (oat, wild [8]; [24]) | Plant response rating, Wheat (wheat [15]; [26]) | Plant response rating, Goosegrass (goosegrass [21]; [24])
70: Plant response rating, Kochia (kochia [19]; [24])
20: Plant response rating, Blackgrass (blackgrass [1]; [23]) | Plant response rating, Pigweed, Palmer (pigweed, palmer [2]; [23]) | Plant response rating, Corn (corn [7]; [26]) | Plant response rating, Oat, Wild (oat, wild [10]; [25]) | Plant response rating, Corn (corn [18]; [24]) | Plant response rating, Goosegrass (goosegrass [21]; [23])
0: Plant response rating, Kochia (kochia [5]; [25]) | Plant response rating, Ragweed (ragweed [6]; [25]) | Plant response rating, Ragweed (ragweed [6]; [26]) | Plant response rating, Blackgrass (blackgrass [9]; [25]) | Plant response rating, Barnyardgrass (barnyardgrass) | Plant response rating, Sedge, Umbrella (sedge, umbrella) | Plant response rating, Horseweed (horseweed; [23]) | Plant response rating, Horseweed (horseweed; [24]) | Plant response rating, Wheat (wheat [15]; [25]) | Plant response rating, Ducksalad (ducksalad) | Plant response rating, Ryegrass, Italian (ryegrass, Italian [20]; [23]) | Plant response rating, Rice (rice)
90: Plant response rating, Galium (galium; [23]) | Plant response rating, Goosegrass (goosegrass [4]; [25]) | Plant response rating, Kochia (kochia [5]; [26]) | Plant response rating, Oat, Wild (oat, wild [10]; [26]) | Plant response rating, Foxtail, Giant (foxtail, giant [12]; [25]) | Plant response rating, Foxtail, Giant (foxtail, giant [14]; [24]) | Plant response rating, Ryegrass, Italian (ryegrass, Italian [16]; [25]) | Plant response rating, Soybean (soybean [22]; [26])
